Reference: patent publication US20220332821A1, “DOSING REGIMEN AND COMBINATION THERAPIES FOR MULTISPECIFIC ANTIBODIES TARGETING B-CELL MATURATION ANTIGEN” (NOVARTIS AG, priority 2019, published 2022)
Entries after “also recorded” stand apart in the source; their conditions may differ.

Experiments:
[1] = tested on: BCMA shedding in KMS11 cells; test: Shed BCMA levels by ELISA after GSI treatment of KMS11 cells; type: cell-based, human; conditions: 20 hours, serial dilution from 1 μM
Procedure: (§1) KMS11-Luc cells were cultured in a 96-well round bottomed plate (Corning #3799) at 1.5×10^5 cells per well in a final volume of 200 μL that included a 12-point, 5-fold serial dilution of AL-102 in RPMI1640 (Gibco #11875-085) supplemented with 20% FBS (Seradigm #1500-500) and L-glutamine (Thermo Fisher #25030-081). The highest starting concentration of AL-102 was 1 μM. Cells were incubated for 20 hours at 37° C./5% CO2. Cells were pelleted, supernatant collected for measurement of shed BCMA levels, and cell pellets stained for evaluation of BCMA membrane expression levels.
Soluble BCMA levels in supernatant were determined by ELISA following a vendor supplied protocol (R&D Systems #DY193). Briefly, recombinant human BCMA-Fc protein was included in the kit, and used to generate a standard curve. Collected samples were assayed and sBCMA concentrations extrapolated from the standard curve. Quantified values as determined by the kit were divided by 5.5 to correct for a molecular mass difference between BCMA-Fc fusion protein used in the kit as a standard curve (32,554.6 Da) and the mass of endogenously shed BCMA extra-cellular domain (5,899.3 Da). The results were analyzed using SoftMax Pro v5.4.1 and graphed in GraphPad Prism.

[2] = tested on: membrane BCMA on KMS11 cells; test: BCMA membrane expression by flow cytometry after GSI treatment of KMS11 cells; type: cell-based, human
Procedure: as §1
Cells were pelleted by centrifugation, and supernatants were transferred to a fresh plate and frozen at −80° C. for later sBCMA analysis by ELISA. For membrane BCMA analysis, cell pellets were resuspended in 100 μL BD Stain Buffer containing BSA (BD#554657) and stained with anti-BCMA-PE (Biolegend, clone 19F2 1.25 ul/test) and Fixable Viability Dye eFluor506 (Thermo Scientific, 1:800 dilution) for 30 minutes at 4° C. Samples were analyzed by flow cytometry on a BD LSR Fortessa instrument. FlowJo v10 software was used for analysis. The anti-BCMA antibody binding capacity (ABC) on KMS11 cells was determined using Quantum Simply Cellular beads (Bangs Laboratories) following a vendor supplied protocol. The ABC is an estimate of the quantity of receptors per cell.

KMS11-Luc cells = test: RTCC assay with KMS11-Luc and human T cells, BSBM3 and AL-102 matrix, Example 9; type: cell-based
Procedure: To evaluate the ability of AL-102 to enhance the activity of BSBM3, a redirected T cell cytotoxicity (RTCC) assay was performed using human T cells and a BCMA-expressing multiple myeloma cell line treated with dose range combinations of BSBM3 and AL-102 in a 10×8 matrix fashion. Human T cells were enriched from peripheral blood of three healthy human donors. First, peripheral blood mononuclear cells (PBMCs) were fractionated from donor blood using a Ficoll-Paque PLUS density gradient (GE Healthcare #17-1440-02) in Leucosep tubes (Greiner #227290) and stored as viable frozen aliquots in liquid nitrogen. PBMC were thawed and Pan T cells were isolated by negative selection according to manufacturer's recommended protocol (Miltenyi #130-096-535). The unlabeled cell fraction, enriched for T cells, was collected by manual magnetic separation on LS columns (Miltenyi #130-042-401). T cells were prepared in T cell media (TCM) consisting of RPMI-1640 (Gibco #11875-085), 10% FBS (Seradigm #1500-500), 1% Pen/Strep (Life Technologies #15070063), 1% L-glutamine (Thermo Scientific #25030-081), 1% Non-Essential Amino Acids (NEAA) (Life Technologies #11140-050), Sodium Pyruvate (NaPy) (Life Technologies #11360-070), HEPES (Life technologies, Cat #15630080), 0.1% 2-Betamercaptoethanol (2-BME) (Life Technologies, Cat #21985-023). KMS11 multiple myeloma cell line was cultured in RPMI1640 supplemented with 20% FBS (Gibco #11875-085, Seradigm #1500-500). The target MM cell line KMS11 was transduced to constitutively express luciferase (KMS11-Luc), and used to measure cell viability/survival. KMS11-Luc cells were pelleted and resuspended in fresh media immediately prior to plating to remove any basal level of shed BCMA that may be present. 7,500 KMS11-Luc target cells in 10 μL TCM were added to wells of 384-well plates (Corning #3765). 10 μl of BSBM3 at a concentration of 10 nM was serially diluted 5-fold, and 10 μl of AL-102 at a concentration of 1000 nM was serially diluted 5-fold, and dispensed into corresponding wells of the assay plates. 15,000 T cells were added to corresponding wells of the assay plate in 10 μL TCM for an E:T of 2:1. The assay was incubated at 37° C./5% CO2 for 48 hr, followed by measurement of luciferase activity to indicate target cell viability (BrightGlo, Promega #E2650) following manufacturer's protocols. Plates were read on an Envision plate reader. Target cells only (KMS11-Luc) without T cells or antibodies served as control and represent 100% luciferase activity (100% viability). Data were plotted and analyzed using GraphPad Prism. EC50 values were calculated using sigmoidal, 4-parameter non-linear regression curve fit.

Question: What does the source list for Cc1cccc2c1NC(=O)[C@@H](NC(=O)[C@H](CCC(F)(F)F)[C@H](CCC(F)(F)F)C(N)=O)N=C2c1cccc(F)c1 [AL-102]?
Answer: inhibition of BCMA shedding [1]: effectively inhibited shedding of BCMA from KMS11 cells in a dose-dependent manner; increase in cell surface BCMA expression ([2]; 1 μM AL-102 versus untreated KMS11 cells): 20 fold; average BCMA antibody-binding capacity (ABC) ([2]; KMS11 cells, 1 μM AL-102, 20 hours, untreated ˜14,000): ~285,000; AL-102 concentration with minimal effect on BSBM3 potency (KMS11-Luc cells; RTCC combination matrix): ≤ 0.32 nM; AL-102 concentration with moderate effect on BSBM3 potency (KMS11-Luc cells; RTCC combination matrix): 1.6 nM; AL-102 concentrations with maximum enhancement of BSBM3 potency (KMS11-Luc cells; RTCC combination matrix): ≥ 8 nM; effect of AL-102 on RTCC potency of BSBM3 (in words) (KMS11-Luc cells; combination with BSBM3): synergistically enhanced the RTCC potency of BSBM3; also recorded: enhanced the RTCC potency of BSBM3 in a dose dependent manner
